Values quoted from earlier work as cited in patent publication US20050244491A1, “Fast disintegrating meloxicam tablet” (Boehringer Ingelheim International GmbH, priority 2001, published 2005).

Details: in acidic or neutral medium

In the case of `Cc1cnc(NC(=O)C2=C(O)c3ccccc3S(=O)(=O)N2C)s1` [Meloxicam, 2H-1,2-benzothiazine-3-carboxamide, 4-hydroxy-2-methyl-N-(5-methyl-2-thiazolyl)-1,1-dioxide], the solubility is given as “low”.
